Earlier results in patent US20220241364A1, “Composition for Lowering Blood Glucose Level, Reducing Blood Hemoglobin A1c Content, or Increasing Blood HDL-Cholesterol Content” (House Wellness Foods Corporation, priority 2019, published 2022).

Conditions: in vivo

CC(C)=CC(=O)C[C@H](C)c1ccc(C)cc1 [ar turmerone]
elevation of blood sugar level: effect of inhibiting the elevation
